Laboratory results taken from patent US8759519B2, “Mono-hydrochloric salts of an inhibitor of histone deacetylase” (Janssen Pharmaceutica NV, priority 2007, dated 2014).
Counter-ions that a name gives are not always drawn.

Tests used:
Format in all cases: physicochemical
[1] = Adsorption/desorption of water (dynamic vapor sorption)
Experimental: The ADS/DES data were obtained using a SMS dynamic vapor sorption model DVS-1 and the weight change was recorded with tespect to the atmospheric humidity at 25° C. The weight of the samples was about 17 mg of Form I and 24 mg of Form II. The samples were dried for 60 min under dry nitrogen. The equilibrium was lower or equal to 0.01%/min. for minimal 15 min and maximal 60 min. The data interval was 0.05% or 2.0 min.
Relative Humidity (%) measurement points were:
The adsorption and desorption of water at 25° C. at different conditions of relative humidity was investigated on 17 mg Form I.
The weight change as a function of relative humidity was registered.
The adsorption and desorption of water at 25° C. at different conditions of relative humidity was investigated on about 24 mg Form II

[2] = Crystallographic stability after storage in open conditions (TGA, DSC, XRPD, IR); parameters: key to XRD / IR: ~Ref: identical with reference; Cryst.: crystalline; settings: for IR / XRD: Table G
Experimental: The stability of the crystal structure of Form I was studied after storage of the compound in open conditions for a period of six weeks at room temperature (RT) under <5%, 56% and 75% relative humidity (RH), 50° C. and 40° C./75% RH.
The samples are analyzed with thermogravimetry (TGA), differential scanning calorimetry (DSC), X-ray powder diffraction (XRPD) and infrared spectroscopy (IR).
The stability of the crystal structure of Form II was studied after storage of the compound in open conditions for a period of six weeks at room temperature (RT) under <5%, 56% and 75% relative humidity (RH), 50° C. and 40° C./75% RH.
The samples were analyzed with thermogravimetry (TGA), differential scanning calorimetry (DSC), X-ray powder diffraction (XRPD) and infrared spectroscopy (IR).

[3] = Chemical stability after storage in open conditions (HPLC, visual inspection); settings: for HPLC Sum of impurities / Appearance: hydrochloride
Experimental: Form I was stored in different open conditions for periods of 1, 4 and 8 weeks.
These conditions are 40° C./75% RH, 50° C., RT/<5% RH, RT/56% RH, RT/75% RH and 0.3 da ICH light.
The compounds were analyzed after storage by HPLC and by visual inspection.
Form II was stored in different open conditions for periods of 1, 4 and 8 weeks. These conditions were 40° C./75% RH, 50° C., RT/<5% RH, RT/56% RH, RT/75% RH and 0.3 da ICH light.

[4] = 0 days (reference), hydrochloride
[5] = extra endothermic signal, six weeks open, 40° C./75% RH
[6] = extra endothermic signal, six weeks open, 50° C.
[7] = extra endothermic signal, six weeks open, RT/56% RH
[8] = extra endothermic signal, six weeks open, RT/75% RH
[9] = extra endothermic signal, six weeks open, RT/<5% RH
[10] = six weeks open, 40° C./75% RH, hydrochloride
[11] = six weeks open, 50° C., hydrochloride
[12] = six weeks open, RT/<5% RH, hydrochloride

drying during the desorption cycle ([1]; 25° C.): dries completely | hygroscopic behavior ([1]; 25° C., adsorption/desorption test, hydrochloride): hygroscopic | water adsorbed at high relative humidity ([1]; 25° C., high relative humidity, hydrochloride): up to 9.6% | crystallinity during the adsorption/desorption test ([1]; 25° C., hydrochloride): remains crystalline | weight loss during the initial drying step ([1]; dried under dry nitrogen): 1.67% | DSC Max (° C.) ([2]; 0 days (reference)): ±198 °C | TGA <170° C. ([2]; 0 days (reference)): 0.4% | App (appearance) [2, 4]: white | TGA <100° C. [2, 4]: 3.3% | IR ([2]; six weeks open, 40° C./75% RH): ≠Ref | XRD ([2]; six weeks open, 40° C./75% RH): ≠Ref | IR ([2]; six weeks open, 50° C.): ~Ref | XRD ([2]; six weeks open, 50° C.): ~Ref | IR ([2]; six weeks open, RT/56% RH): ≠Ref | XRD ([2]; six weeks open, RT/56% RH): ≠Ref | IR ([2]; six weeks open, RT/75% RH): ≠Ref | XRD ([2]; six weeks open, RT/75% RH): ≠Ref | IR ([2]; six weeks open, RT/<5% RH): ~Ref | XRD ([2]; six weeks open, RT/<5% RH): ~Ref | DSC Extra (° C.) ([2]; extra endothermic signal (solvent evaporation), 0 days (reference)): 71.5 °C | DSC Extra, heat of the signal ([2]; extra endothermic signal, 0 days (reference)): (78 J/g) | DSC Extra (° C.) [2, 5]: 83.9 °C | DSC Extra, heat of the signal [2, 5]: (151 J/g) | DSC Extra (° C.) [2, 6]: 74.6 °C | DSC Extra, heat of the signal [2, 6]: (66 J/g) | DSC Extra (° C.) [2, 7]: 87.1 °C | DSC Extra, heat of the signal [2, 7]: (144 J/g) | DSC Extra (° C.) [2, 8]: 85.2 °C | DSC Extra, heat of the signal [2, 8]: (153 J/g) | DSC Extra (° C.) [2, 9]: 75.1 °C | DSC Extra, heat of the signal [2, 9]: (68 J/g) | crystallographic stability (conclusion) ([2]; six weeks open storage under the different conditions, hydrochloride): crystallographically not stable | DSC Max (° C.) ([2]; six weeks open, 40° C./75% RH): ±198 °C | TGA <170° C. ([2]; six weeks open, 40° C./75% RH): 0.2% | App (appearance) [2, 10]: pink | TGA <100° C. [2, 10]: 6% | DSC Max (° C.) ([2]; six weeks open, 50° C.): ±198 °C | TGA <170° C. ([2]; six weeks open, 50° C.): 0.2% | App (appearance) [2, 11]: white | TGA <100° C. [2, 11]: 2.1% | DSC Max (° C.) ([2]; six weeks open, RT/56% RH): ±198 °C | TGA <170° C. ([2]; six weeks open, RT/56% RH): 0.3% | TGA <100° C. ([2]; six weeks open, RT/56% RH, hydrochloride): 5.2% | DSC Max (° C.) ([2]; six weeks open, RT/75% RH): ±198 °C | TGA <170° C. ([2]; six weeks open, RT/75% RH): 0.3% | TGA <100° C. ([2]; six weeks open, RT/75% RH, hydrochloride): 4.9% | DSC Max (° C.) ([2]; six weeks open, RT/<5% RH): ±198 °C | TGA <170° C. ([2]; six weeks open, RT/<5% RH): 0.4% | App (appearance) [2, 12]: white | TGA <100° C. [2, 12]: 1.9% | HPLC Sum of impurities ([3]; 0.3 da ICH light (1 week)): 7.42% | HPLC Sum of impurities ([3]; 40° C./75% RH, 1 week): 4.96% | Appearance ([3]; 40° C./75% RH, 4 weeks): pink | HPLC Sum of impurities ([3]; 40° C./75% RH, 4 weeks): 4.99% | Appearance ([3]; 40° C./75% RH, 8 weeks): pink | HPLC Sum of impurities ([3]; 40° C./75% RH, 8 weeks): 4.9% | Appearance ([3]; 50° C., 1 week): white | HPLC Sum of impurities ([3]; 50° C., 1 week): 4.96% | Appearance ([3]; 50° C., 4 weeks): white | HPLC Sum of impurities ([3]; 50° C., 4 weeks): 5% | HPLC Sum of impurities ([3]; 50° C., 8 weeks): 4.9% | HPLC Sum of impurities ([3]; RT/56% RH, 4 weeks): 5.05% | HPLC Sum of impurities ([3]; RT/56% RH, 8 weeks): 4.94% | HPLC Sum of impurities ([3]; RT/75% RH, 4 weeks): 5.03% | HPLC Sum of impurities ([3]; RT/75% RH, 8 weeks): 4.97% | Appearance ([3]; RT/<5% RH, 4 weeks): white | HPLC Sum of impurities ([3]; RT/<5% RH, 4 weeks): 5.1% | Appearance ([3]; RT/<5% RH, 8 weeks): white | HPLC Sum of impurities ([3]; RT/<5% RH, 8 weeks): 4.98% | Appearance ([3]; Reference (1 week)): white | HPLC Sum of impurities ([3]; Reference (1 week)): 5.04% | discoloration ([3]; after storage in 0.3 da ICH light): white to or orange-brown | discoloration ([3]; after storage in humid conditions RT/56% RH, RT/75% RH and 40° C./75% RH and elevated temperature 50° C.): white to pink | sensitivity towards light (sum of impurities) ([3]; storage in 0.3 da ICH light conditions): showed a sensitivity towards light
Structure (SMILES): Cn1cc(CNCC2CCN(c3ncc(C(=O)NO)cn3)CC2)c2ccccc21 [Form II, N-hydroxy-2-[4-[[[(1-methyl-1H-indol-3-yl)methyl]amino]methyl]-1-piperidinyl]-5-pyrimidinecarboxamide hydrochloride]
